# Test results taken from patent US8912213B2, “Synthesis and use of dual tyrosyl-DNA phosphodiesterase I (TDP1)- topoisomerase I (TOP1) inhibitors” (Purdue Research Foundation, priority 2012, dated 2014).
# Read-outs that look alike come from different tables or passages of the source.
# Legend:
# HOP-62 = test: NCI screen cytotoxicity, lung HOP-62; assay type: cell-based; details: Homo sapiens, 50% growth inhibition
# UACC-62 = test: NCI screen cytotoxicity, melanoma UACC-62; assay type: cell-based; details: Homo sapiens, 50% growth inhibition
# SF-539 = test: NCI screen cytotoxicity, CNS SF-539; assay type: cell-based; details: Homo sapiens, read-out: Cytotoxicity (GI50 in μM) CNS SF-539; 50% growth inhibition
# SN12C = test: NCI screen cytotoxicity, renal SN12C; assay type: cell-based; details: Homo sapiens, 50% growth inhibition
# Tdp1 [1] = target: T1, Tdp1 (Homo sapiens (Human), UniProt Q9NUW8); test: Gel-based assay measuring the inhibition of recombinant Tdp1; assay type: biochemical;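 note: 5′-32P-labeled single-stranded DNA with 3′-phosphotyrosine incubated with 5 pM enzyme for 15 min at room temperature, inhibition seen as loss of 3′-phosphate product band by densitometry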
# Protocol: Tdp1 inhibitory activity was measured by the drug's ability to inhibit the hydrolysis of the phosphodiester linkage between tyrosine and the 3′-end of the DNA substrate, and to prevent the generation of an oligonucleotide with a free 3′-phosphate (N14P). Therefore, the disappearance of the gel band for N14P indicated Tdp1 inhibition.
# Gel-Based Assay Measuring the Inhibition of Recombinant Tdp1. A 5′-[^32P]-labeled single-stranded DNA oligonucleotide containing a 3′-phosphotyrosine (N14Y) was generated as described by Dexheimer et al. The DNA substrate was then incubated with 5 pM recombinant Tdp1 in the absence or presence of inhibitor for 15 min at room temperature in a buffer containing 50 mM Tris HCl, pH 7.5, 80 mM KCl, 2 mM EDTA, 1 mM DTT, 40 μg/ml BSA and 0.01% Tween-20. […] Gel images were scanned using a Typhoon 8600 (GE Healthcare) and densitometric analyses were performed using the ImageQuant software (GE Healthcare).
# OVCAR-3 = test: NCI screen cytotoxicity, ovarian OVCAR-3; details: Homo sapiens, OVCAR-3, read-out: Cytotoxicity (GI50 in μM) ovarian OVCAR-3
# MDA-MB-435 = test: NCI screen cytotoxicity, breast MDA-MB-435; assay type: cell-based; details: Homo sapiens, MDA-MB-435, read-out: Cytotoxicity (GI50 in μM) breast MDA-MB-435; 50% growth inhibition
# [2] = system: all human cancer cell lines successfully tested; test: NCI screen, mean graph midpoint (MGM) for growth inhibition; details: for GI50: Homo sapiens; for MGM: series (B), mean graph midpoint GI50, ± standard error where two determinations
# DU-145 = test: NCI screen cytotoxicity, prostate DU-145; assay type: cell-based; details: Homo sapiens, DU-145, read-out: Cytotoxicity (GI50 in μM) prostate DU-145; 50% growth inhibition
# HCT-116 = test: NCI screen cytotoxicity, colon HCT-116; assay type: cell-based; details: Homo sapiens, 50% growth inhibition
# Human recombinant Top1 = Human recombinant Top1 (Homo sapiens (Human), UniProt P11387); test: Topoisomerase I-mediated DNA cleavage reactions; assay type: biochemical; details: for Top1 (compound-induced DNA cleavage, semiquantitative scale): series (B), relative to 1 μM camptothecin (90) or MJ-III-65 (91); for Top1 inhibition (semiquantitative scale): series (A), relative to 1 μM camptothecin;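 for all read-outs here: 3′-end radiolabeled DNA substrate (about 2 nM) incubated with recombinant Top1 and compound for 20 min at 25 °C, cleavage products resolved by denaturing PAGE and phosphoimaging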
# Protocol: Additionally, all indenoisoquinoline sulfonates and sulfonamides were tested for Top1 cleavage complex poisoning in a Top1-mediated DNA cleavage assay.
# Topoisomerase I-Mediated DNA Cleavage Reactions. Human recombinant Top1 was purified from baculovirus as previously described. DNA cleavage reactions were prepared as previously reported with the exception of the DNA substrate. […] Unincorporated [^32P]dGTP was removed using mini Quick Spin DNA columns (Roche, Indianapolis, Ind.), and the eluate containing the 3′-end-labeled DNA substrate was collected. Approximately 2 nM radiolabeled DNA substrate was incubated with recombinant Top1 in 20 μL of reaction buffer [10 mM Tris-HCl (pH 7.5), 50 mM KCl, 5 mM MgCl2, 0.1 mM EDTA, and 15 μg/mL BSA] at 25° C. for 20 min in the presence of various concentrations of compounds. The reactions were terminated by adding SDS (0.5% final concentration) followed by the addition of two volumes of loading dye (80% formamide, 10 mM sodium hydroxide, 1 mM sodium EDTA, 0.1% xylene cyanol, and 0.1% bromphenol blue). Aliquots of each reaction mixture were subjected to 20% denaturing PAGE. Gels were dried and visualized by using a phosphoimager and ImageQuant software (Molecular Dynamics).
# Topoisomerase I-Mediated DNA Cleavage Reactions. Top1 reactions were performed as recently described. […] The reactions were terminated by adding SDS (0.5% final concentration) followed by the addition of two volumes of loading dye (80% formamide, 10 mM sodium hydroxide, 1 mM sodium EDTA, 0.1% xylene cyanol, and 0.1% bromphenol blue). Reactions were subjected to 20% denaturing PAGE. Gels were dried and visualized by using a Typhoon 8600 and ImageQuant software (Molecular Dynamics).
# Tdp1 [3] = target: T1, Tdp1; test: Surface plasmon resonance analysis; assay type: binding; details: immobilized Tdp1
# Protocol: Surface Plasmon Resonance Analysis. Binding experiments were performed on a Biacore T100 instrument (GE, Piscataway N.J.). Tdp1 was amine coupled to a CM5 sensor chip (GE Healthcare, Piscataway N.J.). […] (EDC), N-hydroxysuccinimide (NHS) and ethanolamine were purchased from GE Heathcare, (Piscataway N.J.). Neutravidin was obtained from Pierce. In order to protect the amine groups within the active site from modification, Tdp1 was bound with a 14-base oligonucleotide before coupling to the surface. […] The CM5 chip surface was activated for 7 min. with 0.1 M NHS and 0.4 M EDC at a flow rate of 20 μL/min and Tdp1-oligonucleotide mixture was injected until approximately 4000 RU's was attached. Activated amine groups were quenched with an injection of 1 M solution of ethanolamine pH 8.0 for 7 min. Any bound oligonucleotide was removed by washing the surface with 1 M NaCl. A reference surface was prepared in the same manner without coupling of Tdp1. […] Following compound injections, the surface was regenerated with a 30 second injection 1 M NaCl, a 30 second injection of 50% DMSO (v/v) and a 30 second running buffer injection. Each cycle of compound injection was followed by buffer cycle for referencing purposes. A DMSO calibration curve was included to correct for refractive index mismatches between the running buffer and compound dilution series.
# Surface Plasmon Resonance Analysis. […]
# [4] = target: endogenous human Tdp1 in whole cell extract (Homo sapiens (Human), UniProt Q9NUW8); test: Gel-based assay measuring the inhibition of endogenous human Tdp1 in whole cell extract; assay type: biochemical; details: human Tdp1 in whole cell extract (WCE)
# Protocol: Gel-Based Assay Measuring the Inhibition of Endogenous Human Tdp1 in Whole Cell Extract. 1×10^7 DT40 knockout cells for chicken Tdp1 and complemented with human Tdp1 were collected, washed and centrifuged. Cell pellet was then resuspended with 100 μL of CellLytic M Cell Lysis Reagent (SIGMA-Aldrich C2978). After 15 min, the lysate was centrifuged at a 12,000 g for 10 min and the supernatant was transferred to a new tube. Protein concentration was determined using a nanodrop spectrophotometer (Invitrogen) and the whole cell extract was stored at −80° C. […] Reactions were then treated similarly to the recombinant enzyme containing samples (see section above).
# All compounds were first tested in gel based assays for Tdp1 inhibition using recombinant (rec.) human Tdp1 and only the active compounds were tested for human Tdp1 inhibition in whole cell extract (WCE). […] was included in all experiments as positive control.
# Tdp1 [5] = target: T1, Tdp1; details: known inhibitor; cited from earlier work
# T1 sequence (Q9NUW8 whole entry): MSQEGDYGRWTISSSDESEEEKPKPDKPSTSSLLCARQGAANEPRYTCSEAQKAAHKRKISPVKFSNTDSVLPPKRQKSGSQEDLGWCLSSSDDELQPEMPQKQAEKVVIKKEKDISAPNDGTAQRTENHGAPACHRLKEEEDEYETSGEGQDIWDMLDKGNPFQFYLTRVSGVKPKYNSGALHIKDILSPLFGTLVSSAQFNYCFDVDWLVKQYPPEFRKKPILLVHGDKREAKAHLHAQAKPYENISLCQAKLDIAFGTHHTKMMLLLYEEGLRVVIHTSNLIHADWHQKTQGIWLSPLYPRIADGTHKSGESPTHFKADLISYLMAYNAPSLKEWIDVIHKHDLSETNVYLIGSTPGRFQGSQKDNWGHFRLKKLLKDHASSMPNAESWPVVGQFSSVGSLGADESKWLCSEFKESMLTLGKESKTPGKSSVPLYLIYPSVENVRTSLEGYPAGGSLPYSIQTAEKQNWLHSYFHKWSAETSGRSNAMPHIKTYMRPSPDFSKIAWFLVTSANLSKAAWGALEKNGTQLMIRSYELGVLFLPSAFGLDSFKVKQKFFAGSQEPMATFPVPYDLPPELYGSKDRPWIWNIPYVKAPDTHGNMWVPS
# Chain of Human recombinant Top1 (P11387 whole entry): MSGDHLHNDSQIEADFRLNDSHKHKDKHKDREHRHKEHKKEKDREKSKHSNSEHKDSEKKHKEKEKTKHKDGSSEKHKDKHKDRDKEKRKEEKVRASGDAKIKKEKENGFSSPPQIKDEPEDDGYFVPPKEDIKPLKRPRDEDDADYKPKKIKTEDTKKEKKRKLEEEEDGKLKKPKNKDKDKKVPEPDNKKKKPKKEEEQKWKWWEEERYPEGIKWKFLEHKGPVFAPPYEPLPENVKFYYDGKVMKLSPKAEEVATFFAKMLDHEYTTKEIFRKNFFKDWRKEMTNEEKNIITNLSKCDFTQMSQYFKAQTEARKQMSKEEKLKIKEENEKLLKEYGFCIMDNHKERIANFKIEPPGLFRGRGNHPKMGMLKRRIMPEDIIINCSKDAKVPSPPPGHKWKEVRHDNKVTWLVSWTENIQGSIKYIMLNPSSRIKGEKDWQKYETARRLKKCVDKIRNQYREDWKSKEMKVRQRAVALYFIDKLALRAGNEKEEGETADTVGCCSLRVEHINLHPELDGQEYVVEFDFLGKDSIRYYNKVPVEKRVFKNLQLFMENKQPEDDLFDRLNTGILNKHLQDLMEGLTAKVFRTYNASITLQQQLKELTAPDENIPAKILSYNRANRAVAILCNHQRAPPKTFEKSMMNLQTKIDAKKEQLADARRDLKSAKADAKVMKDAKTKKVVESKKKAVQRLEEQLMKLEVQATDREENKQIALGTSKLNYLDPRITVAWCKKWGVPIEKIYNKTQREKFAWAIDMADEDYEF
# Chain of endogenous human Tdp1 in whole cell extract (Q9NUW8 whole entry): as the sequence (Q9NUW8 whole entry) above
SMILES,GI50 (HOP-62),GI50 (UACC-62),GI50 (SF-539),GI50 (SN12C),GI50 (OVCAR-3),GI50 (MDA-MB-435),GI50 ([2]; read-out: MGM (μM)),GI50 (DU-145),GI50 (HCT-116),"Top1 (compound-induced DNA cleavage, semiquantitative scale) (Human recombinant Top1)",other results
"CCOC(=O)CNc1ccc2c3c(n(CCCN)c(=O)c2c1)-c1ccccc1C3=O.Cl [Compound 40 of (B), Ethyl 2-[(6-(3-Aminopropyl)-5,11-dioxo-6,11-dihydro-5H-indeno[1,2-c]isoquinolin-3-yl)amino]acetate Hydrochloride]",0.93 µM,2.25 µM,8.91 µM,1.75 µM,3.12 µM,3.05 µM,1.69 µM,1.68 µM,0.44 µM,,Tdp1 inhibitory activity (in words) (Tdp1 [1]): active; IC50 (Tdp1 [1]; read-out: Tdp1 (μM) IC50): 11 ± 5 µM
"Cl.NCCCn1c2c(c3ccc(NCC(=O)O)cc3c1=O)C(=O)c1ccccc1-2 [Compound 43 of (B), 2-((6-(3-Aminopropyl)-5,11-dioxo-6,11-dihydro-5H-indeno[1,2-c]isoquinolin-3-yl)amino)acetic Acid Hydrochloride]",0.65 µM,0.72 µM,1.79 µM,0.49 µM,1.6 µM,1.14 µM,0.87 ± 0.014 µM,1.51 µM,0.33 µM,0,"IC50 (Tdp1 [1]; series (B), determined by quadruplicate, read-out: Tdp1 (μM) IC50): 5 ± 1.4 µM"
"COc1ccc2c(c1)-c1c(c3ccc([N+](=O)[O-])cc3c(=O)n1CCCN)C2=O.Cl [Compound 51 of (B), 6-(3-Aminopropyl)-5,6-dihydro-8-methoxy-3-nitro-5,11-dioxo-11H-indeno[1,2-c]isoquinoline Hydrochloride]",,,0.61 µM,0.15 µM,0.54 µM,0.58 µM,0.17 ± 0.017 µM,0.18 µM,0.06 µM,++,IC50 (Tdp1 [1]; read-out: Tdp1 (μM) IC50): 15 ± 3 µM
"COc1ccc2c(c1)-c1c(c3ccc([N+](=O)[O-])cc3c(=O)n1CCCn1ccnc1)C2=O [Compound 52 of (B), 6-(3-(1H-Imidazol-1-yl)propyl)-8-methoxy-3-nitro-5H-indeno[1,2-c]isoquinoline-5,11(6H)-dione]",< 0.01 µM,< 0.01 µM,,< 0.01 µM,0.03 µM,0.03 µM,0.02 µM,< 0.01 µM,< 0.01 µM,+++,"suppression of DNA cleavage at high drug concentration (Human recombinant Top1; 100 μM): slight suppression; Tdp1 (IC50, semiquantitative scale) (Tdp1 [1]): (+); Tdp1 inhibitory activity (in words) (Tdp1 [1]): very weak or inactive; MGM ([2]; listed as 52): 0.02 ± 0.0006 µM"
COc1ccc2c(c1)C(=O)c1c-2n(CCCN)c(=O)c2cc([N+](=O)[O-])ccc12 [Compound 54 of (B)],< 0.01 µM,< 0.01 µM,,< 0.01 µM,,,0.02 µM,,< 0.01 µM,,MGM ([2]; listed as 54): 0.02 ± 0.0008 µM
NCCCn1c2c(c3ccc(N)cc3c1=O)C(=O)c1ccccc1-2 [Compound 62 of (B)],0.27 µM,0.3 µM,0.34 µM,0.23 µM,0.13 µM,0.23 µM,0.16 µM,0.12 µM,0.18 µM,,
O=C1c2ccccc2-c2c1c1ccc([N+](=O)[O-])cc1c(=O)n2CCCO [Compound 63 of (B)],,0.31 µM,,0.47 µM,0.87 µM,1.97 µM,0.89 ± 0.22 µM,0.43 µM,0.19 µM,,
Cl.NCCCn1c2c(c3ccccc3c1=O)C(=O)c1ccccc1-2 [Compound 70 of (A)],,,,,,,,,,,Top1 inhibition (semiquantitative scale) (Human recombinant Top1): +++ (between 75% and 95% activity); binding to Tdp1 by surface plasmon resonance (Tdp1 [3]): direct binding
"O=C1c2ccccc2-c2c1c1ccccc1c(=O)n2CCCNCCCNCCCn1c2c(c3ccccc3c1=O)C(=O)c1ccccc1-2 [Compound 145 of (A), Bis-1,3-{(5,6-dihydro-5,11-diketo-11 H-indeno[1,2-c]isoquinoline)-6-propyl-amino}propane Bis(trifluoroacetate)]",,,,,,,,,,,Top1 inhibition (semiquantitative scale) (Human recombinant Top1): ++++; IC50 [4]: 1900 nM; IC50 (Tdp1 [1]): 1.5 µM; GI50 ([2]; read-out: MGM GI50): 0.394 µM
[O]=[V]([O-])([O-])[O-] [vanadate],,,,,,,,,,,Tdp1 inhibition (in words) (Tdp1 [5]): inhibition at millimolar concentrations
